Holding throughout (test): inhibition of tumour cell growth, NCI panel, 48 h
The subject of test [1] is SF-539 CNS.
Test [2] concerns HCT-116 colon.
The test system of test [3] is MDA-N.
Test [4] deals with DU-145 prostate.
Test [5] relates to MDA-MB-435.
For test [6], the system named is CAKI-1 renal.
In test [7] the test system is SK-MEL-2 melanoma.
The subject of test [8] is NCI-H460 lung.
The test system of test [9] is HCT-15 colon.
The test system of test [10] is UACC-257 melanoma.
For test [11], the system named is OVCAR-3 ovarian.
The test system of test [12] is COLO 205 colon.
For test [13], the system named is RPMI-8226 leukemia.
In test [14] the test system is KM12 colon.
Test [15] concerns BT-549 breast.
Test [16] deals with TK-10 renal.
The subject of test [17] is NCI-H226 lung.
Test [18] concerns HL-60(TB) leukemia.
Test [19] deals with HT29 colon.
Test [20] concerns NCI/ADR-RES ovarian.

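Assay format: 96-well plates, 48-hour exposure. At the TGI there is no net growth.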 Some results are limits rather than exact numbers.

For `CC(C)=CCC[C@@H](C)C1=C(O)C(O)C(C)=C2N=C(c3ccccc3)C(=O)OC21` (stereo not given in full), the TGI in test [1] was 13.8 µM; in test [2], more than 8.46 µM; in [3] it was more than 25 µM; in [4] it was more than 25 µM; in test [5], more than 25 µM; in test [6] it was 9.89 µM. Also, the TGI in test [7] was 6.75 µM; in test [8] it was more than 17 µM; in test [9] it was more than 25 µM; in [10] it was more than 25 µM; in [11], more than 25 µM; in [12], more than 25 µM. The TGI in test [13] is more than 7.03 µM; in test [14] it was more than 18.3 µM; in [15] it was more than 25 µM; in [16], more than 25 µM; in test [17] it was 6.94 µM; in test [18], 1.63 µM. Further, the results for the TGI in [19] and in test [20] were 18.5 µM and 3.13 µM, respectively.

With `Cc1ccc2c(c1)C(=O)/C(=N/Nc1ccc(Cl)cc1)CCO2`, the TGI in [1], in test [2], in test [3], in test [4], in [5] and in test [6] was more than 100 µM throughout. Besides, the TGI in test [7] is 54.6 µM; in test [8], more than 100 µM; in [9] it was more than 100 µM; in [10], more than 100 µM; in test [11], more than 100 µM; in [12] it was more than 100 µM. Besides, the TGI in test [13], in test [14], in [15], in test [16], in test [17] and in [18] was more than 100 µM each time. Besides, the TGI in test [19] and in test [20] was more than 100 µM in each case.

`Nc1nc(Cl)c(N)c(NCC2(CO)CCC2)n1`: the TGI in test [1], in test [2], in test [3], in test [4], in test [5] and in [6] was more than 100 µM in each case. Besides, the TGI in test [7], in test [8], in test [9], in [10], in test [11] and in [12] was more than 100 µM each time. Also, the TGI in [13], in test [14], in test [15], in [16], in test [17] and in [18] was more than 100 µM throughout. Also, the TGI in test [19] and in [20] was more than 100 µM in each case.

As for `CC(=O)O[C@H]1CC[C@H]2[C@@H]3CCC4C(C)=NNC(=O)C4[C@H]3CC[C@]12C` (stereo not given in full), the TGI in [1], in test [2], in test [3], in [4], in test [5] and in test [6] was more than 100 µM in each case. For the same compound, the TGI in test [7], in test [8], in [9], in test [10], in test [11] and in test [12] was more than 100 µM each time. The TGI in [13] is more than 100 µM; in test [14] it was more than 100 µM; in test [15], more than 69.7 µM; in test [16], more than 100 µM; in [17], more than 100 µM; in test [18], more than 100 µM. Moreover, the TGI in test [19] and in [20] was more than 100 µM in each case.

Regarding `CN1C2CCC1CC(CCOC(c1ccc(F)cc1)c1ccc(F)cc1)C2` (stereo not given), the TGI is 29.9 µM in test [1]; 27.4 µM in test [2]; 37.5 µM in [3]; 33.5 µM in [4]; 25.7 µM in test [5]; 32.6 µM in test [6]. The TGI in [7] was 31.4 µM; in [8], 32.2 µM; in test [9], 32.3 µM; in test [10], 34.1 µM; in test [11] it was 32.4 µM; in test [12], 24.1 µM. Also, the TGI in test [13] is 44.4 µM; in test [14], 30.8 µM; in [15], 31.1 µM; in test [16], 28.8 µM; in test [17], 29.1 µM; in [18], 34.9 µM. The TGI in test [19] amounted to 19.1 µM; in test [20], 36.5 µM.

On to `COc1ccc([N+](=O)[O-])c2c(NCCCN(C)C)c3ccccc3nc12`, for which the TGI was 1.49 µM in test [1]; 0.978 µM in [2]; 1.55 µM in test [3]; 1.79 µM in test [4]; 1.17 µM in [5]; 5.7 µM in test [6]. Moreover, the TGI in [7] was 0.281 µM; in test [8], 0.257 µM; in [9], 1.39 µM; in test [10], 0.531 µM; in test [11], 0.442 µM; in test [12] it was 0.26 µM. Also, the TGI turned out to be 2.17 µM in test [13]; 0.509 µM in test [14]; 2.83 µM in test [15]; 2.43 µM in test [16]; 0.862 µM in test [17]; 3.8 µM in test [18]. The TGI turned out to be 1.22 µM in [19] and 23.5 µM in [20].

`CC(=O)C(I(OS(=O)(=O)c1ccc(C)cc1)c1ccccc1)=P(c1ccccc1)(c1ccccc1)c1ccccc1`: the TGI is 39.1 µM in test [1]; 50.2 µM in [2]; 33.2 µM in [3]; 58.7 µM in [4]; 32.4 µM in test [5]; more than 100 µM in [6]. The TGI was 36 µM in test [7]; more than 100 µM in test [8]; more than 100 µM in test [9]; 59 µM in test [10]; 56.1 µM in test [11]; 31.4 µM in test [12]. Further, the TGI was 61.1 µM in test [13]; 38.2 µM in test [14]; 46.3 µM in test [15]; more than 100 µM in [16]; 38.8 µM in test [17]; 76.3 µM in [18]. Also, the TGI in test [19] is 49.6 µM; in [20], more than 100 µM.

For the origin of these results see PubChem BioAssay (NCI).
